Results from US20230085307A1, “PYRIDAZINONE COMPOUND AND HERBICIDE” (NISSAN CHEMICAL CORPORATION, priority 2019, published 2023).

Key:
late watergrass [1] = assay: Test Example 1: herbicidal activity, application before weed generation under submerged conditions (Table 16, symbol A); type: in vivo, late watergrass (Echinochloa oryzicola); details: for Herbicidal effect, A: late watergrass: amount of applied herbicide 320 g/ha
Procedure, shortened: (§1)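 Submerged Wagner pots (alluvial soil, 4 cm water) sown with weed seeds and planted with 2.5-leaf rice seedlings; emulsifiable concentrate diluted in water applied to water surface on sowing day. Held in greenhouse at 25-30 °C; injury scored 0-5 by herbicidal rate after three weeks.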

Japanese bulrush [2] = assay: Test Example 1: herbicidal activity, application before weed generation under submerged conditions (Table 16, symbol B); type: in vivo, Japanese bulrush (Schoenoplectus juncoides); details: for Herbicidal effect, B: Japanese bulrush: amount of applied herbicide 320 g/ha
Procedure, shortened: as §1

oval-leafed pondweed [3] = assay: Test Example 1: herbicidal activity, application before weed generation under submerged conditions (Table 16, symbol C); type: in vivo, oval-leafed pondweed (Monochoria vaginalis); details: for Herbicidal effect, C: oval-leafed pondweed: amount of applied herbicide 320 g/ha
Procedure, shortened: as §1

late watergrass [4] = assay: Test Example 2: herbicidal activity, application during weed generation under submerged conditions (Table 17, symbol A); type: in vivo, late watergrass (Echinochloa oryzicola); details: AAH 320 g/ha; application during weed generation, submerged conditions
Procedure, shortened: (§2)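 Mixed weed seedlings in alluvial soil under a 4 cm water layer, greenhouse-grown at 25–30° C. Compound given as a diluted emulsion into the floodwater at the 1–2 leaf stage; response graded after three weeks.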

Japanese bulrush [5] = assay: Test Example 2: herbicidal activity, application during weed generation under submerged conditions (Table 17, symbol B); type: in vivo, Japanese bulrush (Schoenoplectus juncoides); details: AAH 320 g/ha; application during weed generation, submerged conditions
Procedure, shortened: as §2

oval-leafed pondweed [6] = assay: Test Example 2: herbicidal activity, application during weed generation under submerged conditions (Table 17, symbol C); type: in vivo, oval-leafed pondweed (Monochoria vaginalis); details: AAH 320 g/ha; application during weed generation, submerged conditions
Procedure, shortened: as §2

barnyard grass [7] = assay: Test Example 3: herbicidal effect by foliage application, Wagner pot (Table 18, symbol H); type: in vivo, barnyard grass (Echinochloa crus-galli); details: for herbicidal effect on barnyard grass (H): 320 g/ha
Procedure, shortened: (§3)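 Plants were sown in alluvial soil held under 0.1–0.5 cm standing water and grown 14 days in a greenhouse at 25–30 °C. An emulsifiable formulation, water-diluted to the set dose, was then sprayed onto the foliage, and effects were scored three weeks later using previously defined criteria.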

Chinese sprangletop = assay: Test Example 3: herbicidal effect by foliage application, Wagner pot (Table 18, symbol D); type: in vivo, chinese sprangletop (Leptochloa chinensis); details: for herbicidal effect on Chinese sprangletop (D): 320 g/ha
Procedure, shortened: as §3

rice flat sedge = assay: Test Example 3: herbicidal effect by foliage application, Wagner pot (Table 18, symbol E); type: in vivo, rice flat sedge (Cyperus iria); details: for herbicidal effect on rice flat sedge (E): 320 g/ha
Procedure, shortened: as §3

southern crabgrass = assay: Test Example 5: herbicidal effect by foliage application, plastic box (Table 20, symbol F); type: in vivo, southern crabgrass (Digitaria ciliaris); details: 320 g/ha, evaluated three weeks after application; for herbicidal effect on F: southern crabgrass (evaluation grade 0-5): foliage application after 14-day growth
Procedure, shortened: (§4)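 Foliar spray test: emulsion formulation diluted in water to a set application rate, sprayed onto 14-day-old plants raised in diluvial soil at 25° C to 30° C under glass. Both herbicidal effect and crop effect rated visually three weeks later.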

green foxtail = assay: Test Example 5: herbicidal effect by foliage application, plastic box (Table 20, symbol G); type: in vivo, green foxtail (Setaria viridis); details: 320 g/ha, evaluated three weeks after application; for herbicidal effect on G: green foxtail (evaluation grade 0-5): foliage application after 14-day growth
Procedure, shortened: as §4

barnyard grass [8] = assay: Test Example 5: herbicidal effect by foliage application, plastic box (Table 20, symbol H); type: in vivo, barnyard grass (Echinochloa crus-galli); details: 320 g/ha, evaluated three weeks after application; for herbicidal effect on H: barnyard grass (evaluation grade 0-5): foliage application after 14-day growth
Procedure, shortened: as §4

wild oat = assay: Test Example 5: herbicidal effect by foliage application, plastic box (Table 20, symbol I); type: in vivo, wild oat (Avena fatua); details: 320 g/ha, evaluated three weeks after application; for herbicidal effect on I: wild oat (evaluation grade 0-5): foliage application after 14-day growth
Procedure, shortened: as §4

blackgrass = assay: Test Example 5: herbicidal effect by foliage application, plastic box (Table 20, symbol J); type: in vivo, blackgrass (Alopecurus myosuroides); details: 320 g/ha, evaluated three weeks after application; for herbicidal effect on J: blackgrass (evaluation grade 0-5): foliage application after 14-day growth
Procedure, shortened: as §4

Italian ryegrass = assay: Test Example 5: herbicidal effect by foliage application, plastic box (Table 20, symbol K); type: in vivo, Italian ryegrass (Lolium multiflorum); details: 320 g/ha, evaluated three weeks after application; for herbicidal effect on K: Italian ryegrass (evaluation grade 0-5): foliage application after 14-day growth
Procedure, shortened: as §4

windgrass = assay: Test Example 5: herbicidal effect by foliage application, plastic box (Table 20, symbol L); type: in vivo, windgrass (Apera spica-venti); details: 320 g/ha, evaluated three weeks after application; for herbicidal effect on L: windgrass (evaluation grade 0-5): foliage application after 14-day growth
Procedure, shortened: as §4

velvetleaf = assay: Test Example 5: herbicidal effect by foliage application, plastic box (Table 20, symbol M); type: in vivo, velvetleaf (Abutilon theophrasti); details: 320 g/ha, evaluated three weeks after application; for herbicidal effect on M: velvetleaf (evaluation grade 0-5): foliage application after 14-day growth
Procedure, shortened: as §4

redroot pigweed = assay: Test Example 5: herbicidal effect by foliage application, plastic box (Table 20, symbol N); type: in vivo, redroot pigweed (Amaranthus retroflexus); details: 320 g/ha, evaluated three weeks after application; for herbicidal effect on N: redroot pigweed (evaluation grade 0-5): foliage application after 14-day growth
Procedure, shortened: as §4

lambsquarters = assay: Test Example 5: herbicidal effect by foliage application, plastic box (Table 20, symbol O); type: in vivo, lambsquarters (Chenopodium album); details: 320 g/ha, evaluated three weeks after application; for herbicidal effect on O: lambsquarters (evaluation grade 0-5): foliage application after 14-day growth
Procedure, shortened: as §4

chickweed = assay: Test Example 5: herbicidal effect by foliage application, plastic box (Table 20, symbol P); type: in vivo, common chickweed (Stellaria media); details: 320 g/ha, evaluated three weeks after application; for herbicidal effect on P: chickweed (evaluation grade 0-5): foliage application after 14-day growth
Procedure, shortened: as §4

persian speedwell = assay: Test Example 5: herbicidal effect by foliage application, plastic box (Table 20, symbol R); type: in vivo, Persian speedwell (Veronica persica); details: 320 g/ha, evaluated three weeks after application; for herbicidal effect on R: persian speedwell (evaluation grade 0-5): foliage application after 14-day growth
Procedure, shortened: as §4

[9] = amount of applied herbicide 320 g/ha

Compound	herbicidal effect rating, A: late watergrass (late watergrass [4])	herbicidal effect rating, B: Japanese bulrush (Japanese bulrush [5])	herbicidal effect rating, C: oval-leafed pondweed (oval-leafed pondweed [6])	Herbicidal effect, A: late watergrass (late watergrass [1])	Herbicidal effect, B: Japanese bulrush (Japanese bulrush [2])	Herbicidal effect, C: oval-leafed pondweed (oval-leafed pondweed [3])	herbicidal effect on barnyard grass (H) (barnyard grass [7])	herbicidal effect on Chinese sprangletop (D) (Chinese sprangletop)	herbicidal effect on rice flat sedge (E) (rice flat sedge)	herbicidal effect on F: southern crabgrass (evaluation grade 0-5) (southern crabgrass)	herbicidal effect on G: green foxtail (evaluation grade 0-5) (green foxtail)	herbicidal effect on H: barnyard grass (evaluation grade 0-5) (barnyard grass [8])	herbicidal effect on I: wild oat (evaluation grade 0-5) (wild oat)	herbicidal effect on J: blackgrass (evaluation grade 0-5) (blackgrass)	herbicidal effect on K: Italian ryegrass (evaluation grade 0-5) (Italian ryegrass)	herbicidal effect on L: windgrass (evaluation grade 0-5) (windgrass)	herbicidal effect on M: velvetleaf (evaluation grade 0-5) (velvetleaf)	herbicidal effect on N: redroot pigweed (evaluation grade 0-5) (redroot pigweed)	herbicidal effect on O: lambsquarters (evaluation grade 0-5) (lambsquarters)	herbicidal effect on P: chickweed (evaluation grade 0-5) (chickweed)	further results
Cc1nn(C)c(=O)c(-c2c(-c3ccc(C(=O)O)cc3)sc3ccc(Cl)cc23)c1O [2-113]	2 (Herbicidal rate of 20% or more and less than 40%)	0 (Herbicidal rate of 5% or less (almost no effect))	0 (Herbicidal rate of 5% or less (almost no effect))	–	–	–	–	–	–	–	–	–	–	–	–	–	–	–	–	–	Herbicidal effect on A: late watergrass (grade 0-5) (late watergrass [1]; 320 g/ha applied herbicide): 3 (Herbicidal rate of 40% or more and less than 70%); Herbicidal effect on B: Japanese bulrush (grade 0-5) (Japanese bulrush [2]; 320 g/ha applied herbicide): 0 (Herbicidal rate of 5% or less (almost no effect)); Herbicidal effect on C: oval-leafed pondweed (grade 0-5) (oval-leafed pondweed [3]; 320 g/ha applied herbicide): 0 (Herbicidal rate of 5% or less (almost no effect)); herbicidal effect on H: barnyard grass (barnyard grass [7]; [9]): 3 (Herbicidal rate of 40% or more and less than 70%); herbicidal effect on D: Chinese sprangletop (Chinese sprangletop; [9]): 1 (Herbicidal rate of 5% or more and less than 20%); herbicidal effect on E: rice flat sedge (rice flat sedge; [9]): 0 (Herbicidal rate of 5% or less (almost no effect)); herbicidal effect on F: southern crabgrass (southern crabgrass; foliage application): 0 (Herbicidal rate of 5% or less (almost no effect)); herbicidal effect on G: green foxtail (green foxtail; foliage application): 0 (Herbicidal rate of 5% or less (almost no effect)); herbicidal effect on H: barnyard grass (barnyard grass [8]; foliage application): 0 (Herbicidal rate of 5% or less (almost no effect)); herbicidal effect on I: wild oat (wild oat; foliage application): 0 (Herbicidal rate of 5% or less (almost no effect)); herbicidal effect on J: blackgrass (blackgrass; foliage application): 0 (Herbicidal rate of 5% or less (almost no effect)); herbicidal effect on K: Italian ryegrass (Italian ryegrass; foliage application): 0 (Herbicidal rate of 5% or less (almost no effect)); herbicidal effect on L: windgrass (windgrass; foliage application): 0 (Herbicidal rate of 5% or less (almost no effect)); herbicidal effect on M: velvetleaf (velvetleaf; foliage application): 0 (Herbicidal rate of 5% or less (almost no effect)); herbicidal effect on N: redroot pigweed (redroot pigweed; foliage application): 0 (Herbicidal rate of 5% or less (almost no effect)); herbicidal effect on O: lambsquarters (lambsquarters; foliage application): 0 (Herbicidal rate of 5% or less (almost no effect)); herbicidal effect on P: chickweed (chickweed; foliage application): 0 (Herbicidal rate of 5% or less (almost no effect)); herbicidal effect on R: persian speedwell (persian speedwell; foliage application): 0 (Herbicidal rate of 5% or less (almost no effect))
Cc1nn(C)c(=O)c(-c2c(-c3ccc(C(F)(F)F)cc3)sc3cc(Cl)ccc23)c1O [3-145]	3 (Herbicidal rate of 40% or more and less than 70%)	2 (Herbicidal rate of 20% or more and less than 40%)	0 (Herbicidal rate of 5% or less (almost no effect))	3 (Herbicidal rate of 40% or more and less than 70%)	2 (Herbicidal rate of 20% or more and less than 40%)	0 (Herbicidal rate of 5% or less (almost no effect))	3 (Herbicidal rate of 40% or more and less than 70%)	5 (Herbicidal rate of 90% or more (almost completely withered))	4 (Herbicidal rate of 70% or more and less than 90%)	0 (Herbicidal rate of 5% or less (almost no effect))	2 (Herbicidal rate of 20% or more and less than 40%)	0 (Herbicidal rate of 5% or less (almost no effect))	0 (Herbicidal rate of 5% or less (almost no effect))	0 (Herbicidal rate of 5% or less (almost no effect))	0 (Herbicidal rate of 5% or less (almost no effect))	5 (Herbicidal rate of 90% or more (almost completely withered))	3 (Herbicidal rate of 40% or more and less than 70%)	3 (Herbicidal rate of 40% or more and less than 70%)	3 (Herbicidal rate of 40% or more and less than 70%)	0 (Herbicidal rate of 5% or less (almost no effect))	herbicidal effect on R: persian speedwell (evaluation grade 0-5) (persian speedwell): 0 (Herbicidal rate of 5% or less (almost no effect))
CCCC(=O)Oc1c(C)nn(C)c(=O)c1-c1c(-c2ccc(C)cc2)sc2c(Cl)cccc12 [4-020]	0 (Herbicidal rate of 5% or less (almost no effect))	3 (Herbicidal rate of 40% or more and less than 70%)	0 (Herbicidal rate of 5% or less (almost no effect))	4 (Herbicidal rate of 70% or more and less than 90%)	3 (Herbicidal rate of 40% or more and less than 70%)	0 (Herbicidal rate of 5% or less (almost no effect))	4 (Herbicidal rate of 70% or more and less than 90%)	5 (Herbicidal rate of 90% or more (almost completely withered))	5 (Herbicidal rate of 90% or more (almost completely withered))	0 (Herbicidal rate of 5% or less (almost no effect))	0 (Herbicidal rate of 5% or less (almost no effect))	0 (Herbicidal rate of 5% or less (almost no effect))	3 (Herbicidal rate of 40% or more and less than 70%)	0 (Herbicidal rate of 5% or less (almost no effect))	4 (Herbicidal rate of 70% or more and less than 90%)	5 (Herbicidal rate of 90% or more (almost completely withered))	5 (Herbicidal rate of 90% or more (almost completely withered))	5 (Herbicidal rate of 90% or more (almost completely withered))	2 (Herbicidal rate of 20% or more and less than 40%)	5 (Herbicidal rate of 90% or more (almost completely withered))	herbicidal effect on R: persian speedwell (evaluation grade 0-5) (persian speedwell): 5 (Herbicidal rate of 90% or more (almost completely withered))
